In patent US12350269B2 (Alexion Pharmaceuticals, Inc., priority 2015, dated 2025):

Columns and labels:
Test in all cases: DLBCL cell line viability, CellTiter Glo
Assay type in all cases: cell-based
Details in all cases: read-out: IC50 of Kinase Inhibitor in CellTiter Glo Assay
DHL5 = test system: DHL5
Description: (§1) Each IC50 value is an average of at least four replicate experiments. Subsequent analysis using a FACS based caspase 3 cleavage detection kit (BD Biosciences) and Edu incorporation were performed.

DHL10 = test system: DHL10
Description: as §1

TOLEDO = test system: TOLEDO
Description: as §1

U2932 = test system: U2932
Description: as §1

RCK8 = test system: RCK8
Description: as §1

VAL = test system: VAL
Description: as §1

LY18 = test system: LY18
Description: as §1

DHL8 = test system: DHL8
Description: as §1

DLCL2 = test system: DLCL2
Description: as §1

LY7 = test system: LY7
Description: as §1

LY10 = test system: LY10
Description: as §1

LY1 = test system: LY1
Description: as §1

DHL6 = test system: DHL6
Description: as §1

DB = test system: DB
Description: as §1

CC(C)(C)c1nc2c3cc[nH]c(=O)c3c3cc(F)ccc3c2[nH]1 [Pan-Jak]
IC50 (DHL5): 39 µM | IC50 (DHL10): 40 µM | IC50 (TOLEDO): 5.9 µM | IC50 (U2932): 3.9 µM | IC50 (RCK8): 43 µM | IC50 (VAL): 5.2 µM | IC50 (LY18): 0.8 µM | IC50 (DHL8): 28 µM | IC50 (DLCL2): 42 µM | IC50 (LY7): 34 µM | IC50 (LY10): 5.1 µM | IC50 (LY1): 0.7 µM | IC50 (DHL6): 2.63 µM | IC50 (DB): 21.4 µM
